From patent US8933235B2, “Pyridinedione carboxamide inhibitors of endothelial lipase” (Bristol-Myers Squibb Company, priority 2011, dated 2015)

The molecules below were run against T1, endothelial lipase (EL) (Homo sapiens, UniProt Q9Y5X9) (assay: Endothelial lipase (EL) enzymatic assay with fluorescent substrate A10070 in DMPG vesicles). Conditions: conditioned media from HT-1080 cells overexpressing endogenous EL; 20 min preincubation at 37° C.; read-out: HLE_EL_CRC IC50.
T1 construct: Conditioned media obtained from HT-1080 cells, which were transformed by RAGE technology (Athersys) to overexpress endogenous EL; endogenous in cells; conditioned medium used as the enzyme source
T1 sequence (Q9Y5X9 21-500): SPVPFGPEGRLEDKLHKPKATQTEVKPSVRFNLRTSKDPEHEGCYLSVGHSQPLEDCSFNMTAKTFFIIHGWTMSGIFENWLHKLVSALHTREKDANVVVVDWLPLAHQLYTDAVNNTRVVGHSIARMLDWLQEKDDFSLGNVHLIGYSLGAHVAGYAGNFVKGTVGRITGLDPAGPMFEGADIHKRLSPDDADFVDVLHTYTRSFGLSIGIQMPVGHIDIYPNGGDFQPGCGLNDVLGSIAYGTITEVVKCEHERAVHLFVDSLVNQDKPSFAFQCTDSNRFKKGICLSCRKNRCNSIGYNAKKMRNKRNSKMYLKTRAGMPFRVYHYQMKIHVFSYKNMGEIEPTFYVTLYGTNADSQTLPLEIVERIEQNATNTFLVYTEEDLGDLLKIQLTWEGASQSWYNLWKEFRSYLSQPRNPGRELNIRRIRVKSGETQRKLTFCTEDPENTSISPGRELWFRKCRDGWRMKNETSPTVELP
Type: biochemical
Protocol: Endothelial lipase activity was measured using a fluorescent substrate, A10070, (Invitrogen, CA) doped into an artificial vesicle containing DMPG (Avanti Polar Lipids) as the excipient. Vesicles were prepared by combining 285 uL of 1 mM DMPG in a 1:1 mixture of MeOH and CHCl3 with 15 uL of 1 mM A10070 in a 1:1 mixture of MeOH and CHCl3. The mixture was dried under nitrogen and resuspended in 150 uL of 50 mM HEPES pH 8.0 buffer containing 100 mM NaCl and 0.2 mM EDTA. The sample was allowed to sit at rt for 15 min and then was sonicated 3×4 mins on ice with a Branson Sonicator using duty cycle 1. This preparation provides vesicles with a mole fraction of 0.05 for the FRET substrate.
The enzymatic assay was measured using white, opaque 96-well half area plates. Each well contained 60 uL of assay buffer (50 mM HEPES pH 8.0, 50 mM NaCl and 1 mM CaCl2) and 2 ul of a DMSO solution containing compound of interest. Conditioned media obtained from HT-1080 cells, which were transformed by RAGE technology (Athersys) to overexpress endogenous EL, was added and the reaction was allowed to incubate for 20 min at 37° C. with gentle agitation. The reaction was started by the addition of 20 uL of a 1:4 dilution of vesicles. The final total reaction volume was 100 uL. The reaction rates were measured on a Gemini plate reader with an excitation wavelength of 488 nm and a emission of 530 nm. Readings were taken every 20 seconds for 10 min with agitation between each reading. The slope of the linear portion of the readout was used to calculate the rate of the reaction.

Row | Structure (SMILES) | IC50
1 | Cn1c(-c2cc(F)cc(C(F)(F)F)c2)cc(C(=O)NCCc2ccc(C(F)(F)F)cc2)c(O)c1=O [Example 60, 6-(3-fluoro-5-(trifluoromethyl)phenyl)-3-hydroxy-1-methyl-2-oxo-N-(4-(trifluoromethyl)phenethyl)-1,2-dihydropyridine-4-carboxamide] | 0.198 µM
2 | CC(C)C(CCc1ccc(Cl)c(Cl)c1)NC(=O)c1ccn(C)c(=O)c1O (single isomer, unassigned) [Example 115, N-(1-(3,4-dichlorophenyl)-4-methylpentan-3-yl)-3-hydroxy-1-methyl-2-oxo-1,2-dihydropyridine-4-carboxamide] | 1.79 µM
3 | Cn1ccc(C(=O)NCCCOc2ccc(Cl)c(Cl)c2)c(O)c1=O [Example 194, N-(3-(3,4-dichlorophenoxy)propyl)-3-hydroxy-1-methyl-2-oxo-1,2-dihydropyridine-4-carboxamide] | 0.21 µM
4 | Cn1c(-c2cc(F)cc(C(F)(F)F)c2)cc(C(=O)NCCCOc2ccccc2[N+](=O)[O-])c(O)c1=O [Example 81, 6-(3-fluoro-5-(trifluoromethyl)phenyl)-3-hydroxy-1-methyl-N-(3-(2-nitrophenoxy)propyl)-2-oxo-1,2-dihydropyridine-4-carboxamide] | < 0.01 µM
